The text below walks through data of ChEMBL document CHEMBL1201862, “PubChem BioAssay data set” (2004).

For assay [1], the target named is T1, Lysine-specific demethylase 4C (Homo sapiens, UniProt Q9H3R0).
T1 sequence (Q9H3R0 whole entry): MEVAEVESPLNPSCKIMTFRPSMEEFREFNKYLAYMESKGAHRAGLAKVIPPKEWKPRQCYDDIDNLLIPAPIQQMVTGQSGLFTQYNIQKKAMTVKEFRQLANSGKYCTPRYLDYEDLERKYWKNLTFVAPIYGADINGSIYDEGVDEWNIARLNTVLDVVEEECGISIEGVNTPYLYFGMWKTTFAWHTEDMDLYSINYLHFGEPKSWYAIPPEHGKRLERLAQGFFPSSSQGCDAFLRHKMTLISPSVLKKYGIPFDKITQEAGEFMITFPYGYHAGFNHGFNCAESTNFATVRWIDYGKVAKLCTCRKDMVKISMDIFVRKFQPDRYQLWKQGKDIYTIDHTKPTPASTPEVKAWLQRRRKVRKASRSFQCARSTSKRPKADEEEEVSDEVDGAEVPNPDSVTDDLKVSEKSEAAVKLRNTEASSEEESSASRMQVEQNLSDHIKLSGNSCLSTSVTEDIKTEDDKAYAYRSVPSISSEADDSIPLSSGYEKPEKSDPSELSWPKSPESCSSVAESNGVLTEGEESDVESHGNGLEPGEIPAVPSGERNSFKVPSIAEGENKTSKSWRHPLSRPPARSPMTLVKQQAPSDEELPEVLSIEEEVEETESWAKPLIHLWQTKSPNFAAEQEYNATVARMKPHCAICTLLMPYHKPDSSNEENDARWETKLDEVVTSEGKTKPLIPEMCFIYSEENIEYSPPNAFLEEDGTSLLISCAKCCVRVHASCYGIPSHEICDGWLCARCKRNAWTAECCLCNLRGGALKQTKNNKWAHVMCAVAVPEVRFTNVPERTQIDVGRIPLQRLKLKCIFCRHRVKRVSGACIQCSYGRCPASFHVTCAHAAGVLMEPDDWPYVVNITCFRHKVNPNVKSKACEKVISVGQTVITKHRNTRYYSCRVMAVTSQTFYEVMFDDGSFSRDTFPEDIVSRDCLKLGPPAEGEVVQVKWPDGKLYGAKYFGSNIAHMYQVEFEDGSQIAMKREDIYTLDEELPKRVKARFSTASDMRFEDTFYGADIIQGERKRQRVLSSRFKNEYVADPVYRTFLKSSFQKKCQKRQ
The assay is described as follows: inhibition of JMJD2C H3K9me3 demethylation – biochemical, DELFIA europium, cherry-picked samples, dose response (AID 488835). In kind it is functional.

Assay [2] deals with T2, Histone-lysine N-methyltransferase NSD2 (Homo sapiens, UniProt O96028).
T2 sequence (O96028 whole entry): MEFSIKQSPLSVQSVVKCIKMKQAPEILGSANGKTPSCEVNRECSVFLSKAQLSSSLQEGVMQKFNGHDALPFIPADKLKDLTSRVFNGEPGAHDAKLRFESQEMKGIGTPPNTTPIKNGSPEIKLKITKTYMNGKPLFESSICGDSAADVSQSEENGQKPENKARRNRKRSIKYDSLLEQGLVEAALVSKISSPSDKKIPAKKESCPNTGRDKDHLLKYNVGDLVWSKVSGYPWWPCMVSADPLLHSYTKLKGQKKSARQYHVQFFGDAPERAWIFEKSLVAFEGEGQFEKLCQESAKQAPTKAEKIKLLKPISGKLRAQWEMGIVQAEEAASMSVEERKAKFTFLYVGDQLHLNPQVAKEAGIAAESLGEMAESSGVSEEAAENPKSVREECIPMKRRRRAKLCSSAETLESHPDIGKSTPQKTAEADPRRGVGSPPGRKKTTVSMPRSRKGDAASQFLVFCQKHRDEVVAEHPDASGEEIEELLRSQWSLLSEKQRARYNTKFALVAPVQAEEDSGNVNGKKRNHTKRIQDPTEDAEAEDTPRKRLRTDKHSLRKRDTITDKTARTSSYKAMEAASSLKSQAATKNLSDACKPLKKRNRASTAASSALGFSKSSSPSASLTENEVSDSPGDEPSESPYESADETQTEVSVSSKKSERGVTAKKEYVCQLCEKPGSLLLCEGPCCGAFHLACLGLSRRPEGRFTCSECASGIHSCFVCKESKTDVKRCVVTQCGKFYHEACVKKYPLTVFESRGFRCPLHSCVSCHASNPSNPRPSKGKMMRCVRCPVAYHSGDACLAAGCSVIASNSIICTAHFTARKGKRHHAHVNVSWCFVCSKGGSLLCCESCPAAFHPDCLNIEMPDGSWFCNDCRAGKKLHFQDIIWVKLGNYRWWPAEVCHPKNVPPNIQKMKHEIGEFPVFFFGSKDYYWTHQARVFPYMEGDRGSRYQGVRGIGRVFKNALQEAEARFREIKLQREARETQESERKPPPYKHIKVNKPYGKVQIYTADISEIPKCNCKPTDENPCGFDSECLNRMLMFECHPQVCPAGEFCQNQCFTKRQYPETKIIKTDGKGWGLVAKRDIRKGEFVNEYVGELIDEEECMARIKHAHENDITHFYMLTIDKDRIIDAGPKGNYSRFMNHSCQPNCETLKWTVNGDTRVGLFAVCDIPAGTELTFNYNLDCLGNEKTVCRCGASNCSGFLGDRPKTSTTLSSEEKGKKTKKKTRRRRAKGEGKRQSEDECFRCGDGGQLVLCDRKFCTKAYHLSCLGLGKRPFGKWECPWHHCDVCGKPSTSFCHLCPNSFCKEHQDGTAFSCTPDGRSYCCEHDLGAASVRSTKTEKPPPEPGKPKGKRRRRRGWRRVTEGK
In kind it is biochemical.

Assay [3] concerns the target Proto-oncogene tyrosine-protein kinase receptor Ret (Homo sapiens, UniProt P07949). In kind it is functional.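 Further: measured within a kinome-wide profiling panel, RET as the panel member.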
Assay [4] deals with Ribosomal protein S6 kinase alpha-3 (Homo sapiens, UniProt P51812). In kind it is functional.
Chain of Ribosomal protein S6 kinase alpha-3 (P51812 whole entry): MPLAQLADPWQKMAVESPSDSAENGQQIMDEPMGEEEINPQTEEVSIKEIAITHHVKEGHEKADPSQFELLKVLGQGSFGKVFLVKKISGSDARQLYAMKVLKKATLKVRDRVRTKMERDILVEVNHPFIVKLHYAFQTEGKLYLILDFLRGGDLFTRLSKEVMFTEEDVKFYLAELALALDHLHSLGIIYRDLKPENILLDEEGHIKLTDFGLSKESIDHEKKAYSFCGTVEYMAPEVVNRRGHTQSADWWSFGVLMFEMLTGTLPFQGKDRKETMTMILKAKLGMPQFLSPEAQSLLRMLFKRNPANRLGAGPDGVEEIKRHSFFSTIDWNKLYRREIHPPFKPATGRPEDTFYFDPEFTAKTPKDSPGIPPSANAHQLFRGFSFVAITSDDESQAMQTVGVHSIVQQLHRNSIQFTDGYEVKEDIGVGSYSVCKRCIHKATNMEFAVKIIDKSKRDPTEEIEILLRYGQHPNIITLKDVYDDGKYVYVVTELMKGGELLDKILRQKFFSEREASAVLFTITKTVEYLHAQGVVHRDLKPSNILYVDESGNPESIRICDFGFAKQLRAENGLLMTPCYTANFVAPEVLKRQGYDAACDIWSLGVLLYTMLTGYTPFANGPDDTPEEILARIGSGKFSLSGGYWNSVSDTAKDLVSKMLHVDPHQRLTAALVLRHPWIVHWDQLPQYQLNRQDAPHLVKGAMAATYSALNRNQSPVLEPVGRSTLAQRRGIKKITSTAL
The target in assay [5] is Platelet-derived growth factor receptor beta (Homo sapiens, UniProt P09619). It counts as functional.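 Further: value comes from a kinome panel, with PDGFRB tested as one panel member.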
Chain of Platelet-derived growth factor receptor beta (P09619 whole entry): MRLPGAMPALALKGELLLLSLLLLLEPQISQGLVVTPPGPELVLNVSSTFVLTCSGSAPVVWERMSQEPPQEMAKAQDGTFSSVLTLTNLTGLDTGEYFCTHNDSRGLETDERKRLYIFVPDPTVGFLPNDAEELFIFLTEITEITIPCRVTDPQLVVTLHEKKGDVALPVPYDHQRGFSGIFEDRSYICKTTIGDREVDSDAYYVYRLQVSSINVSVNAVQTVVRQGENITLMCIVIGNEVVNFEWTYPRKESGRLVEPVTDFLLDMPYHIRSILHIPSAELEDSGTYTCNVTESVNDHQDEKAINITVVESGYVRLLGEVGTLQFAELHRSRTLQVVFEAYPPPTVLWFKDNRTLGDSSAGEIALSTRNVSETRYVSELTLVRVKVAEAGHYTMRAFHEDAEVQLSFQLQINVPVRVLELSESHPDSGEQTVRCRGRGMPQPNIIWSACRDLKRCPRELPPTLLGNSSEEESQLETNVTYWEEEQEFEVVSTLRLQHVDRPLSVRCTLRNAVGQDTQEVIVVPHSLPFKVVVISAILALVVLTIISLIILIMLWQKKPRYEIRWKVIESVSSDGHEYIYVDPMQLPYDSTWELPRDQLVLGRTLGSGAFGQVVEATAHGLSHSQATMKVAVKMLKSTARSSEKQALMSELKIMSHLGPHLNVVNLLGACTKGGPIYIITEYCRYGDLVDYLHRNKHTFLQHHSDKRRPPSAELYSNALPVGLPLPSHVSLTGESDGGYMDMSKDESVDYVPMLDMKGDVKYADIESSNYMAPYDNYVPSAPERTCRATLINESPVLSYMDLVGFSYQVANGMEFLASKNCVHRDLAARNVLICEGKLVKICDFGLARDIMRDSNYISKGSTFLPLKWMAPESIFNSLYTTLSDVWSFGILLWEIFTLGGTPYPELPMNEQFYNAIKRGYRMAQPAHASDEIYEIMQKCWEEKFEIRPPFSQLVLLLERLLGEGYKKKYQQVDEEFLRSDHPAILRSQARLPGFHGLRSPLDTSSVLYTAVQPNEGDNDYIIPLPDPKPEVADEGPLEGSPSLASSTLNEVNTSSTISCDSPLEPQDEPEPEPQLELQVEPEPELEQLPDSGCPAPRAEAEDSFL
In assay [6] the target is Nonstructural protein 1 (Influenza A virus, UniProt Q194T2). In kind it is functional, Influenza A virus (A/California/07/2009(H1N1)).
Chain of Nonstructural protein 1 (Q194T2 whole entry): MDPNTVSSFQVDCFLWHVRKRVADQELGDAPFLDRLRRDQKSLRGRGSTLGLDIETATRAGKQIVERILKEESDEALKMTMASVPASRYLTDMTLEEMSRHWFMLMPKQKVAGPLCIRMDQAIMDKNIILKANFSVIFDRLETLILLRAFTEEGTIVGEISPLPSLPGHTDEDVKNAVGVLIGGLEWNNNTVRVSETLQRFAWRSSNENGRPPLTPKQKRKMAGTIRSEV
For assay [7], the system named is Streptococcus sp. 'group A'. The assay is described as follows: Streptococcus pyogenes SK(-)GAS viability under kanamycin – luminescence, BacTiterGlo, confirmation, counter-screen for streptokinase expression inhibitor project, dose response (AID 1900). In kind it is functional, organism-based. Background: The purpose of a counterscreen is to sort out artefacts and off-target activity.

The subject of assay [8] is INS1. Kind of assay: INS-1E survival protection against cytokine death – cell-based, luminescence, retest, dose response (AID 449756).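 Further: cell death triggered by IL-1 beta plus TNF-alpha plus IFN-gamma mixture; protective hits raise ATP signal compared with cytokine alone wells.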 Particulars: Rattus norvegicus. In kind it is functional.
Assay [9] in a line: HIV-1 AD8 envelope cell-cell fusion blockers – cherry-pick, dose response (AID 652062).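 Further: luciferase signal from cell-cell fusion driven by HIV-1 clade B AD8 Env; potency is for inhibitors of fusion seen as a drop in luminescence.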 It counts as functional, cell-based.
The test system of assay [10] is Vero. The assay is described as follows: viability of Vero cells under compound – cytotoxicity control for flavivirus capping enzyme inhibitors (AID 588742). Particulars: Chlorocebus sabaeus. It counts as functional.
For assay [11], the system named is BJ. The assay is described as follows: BJ-TERT fibroblast viability loss – cell-based, RAS-independent, luminescence, dose response (AID 1933). It counts as functional. Particulars: Homo sapiens.
Assay [12] in a line: DRD fibroblast viability loss – cell-based, non-viral oncogenic, luminescence, dose response (AID 1934). In kind it is functional. Particulars: Homo sapiens.
In assay [13] the test system is BJ. Kind of assay: cells. In kind it is functional, cell-based. Particulars: Homo sapiens.

Activity calls are given as the source filed them.

Chain of Proto-oncogene tyrosine-protein kinase receptor Ret (P07949 whole entry): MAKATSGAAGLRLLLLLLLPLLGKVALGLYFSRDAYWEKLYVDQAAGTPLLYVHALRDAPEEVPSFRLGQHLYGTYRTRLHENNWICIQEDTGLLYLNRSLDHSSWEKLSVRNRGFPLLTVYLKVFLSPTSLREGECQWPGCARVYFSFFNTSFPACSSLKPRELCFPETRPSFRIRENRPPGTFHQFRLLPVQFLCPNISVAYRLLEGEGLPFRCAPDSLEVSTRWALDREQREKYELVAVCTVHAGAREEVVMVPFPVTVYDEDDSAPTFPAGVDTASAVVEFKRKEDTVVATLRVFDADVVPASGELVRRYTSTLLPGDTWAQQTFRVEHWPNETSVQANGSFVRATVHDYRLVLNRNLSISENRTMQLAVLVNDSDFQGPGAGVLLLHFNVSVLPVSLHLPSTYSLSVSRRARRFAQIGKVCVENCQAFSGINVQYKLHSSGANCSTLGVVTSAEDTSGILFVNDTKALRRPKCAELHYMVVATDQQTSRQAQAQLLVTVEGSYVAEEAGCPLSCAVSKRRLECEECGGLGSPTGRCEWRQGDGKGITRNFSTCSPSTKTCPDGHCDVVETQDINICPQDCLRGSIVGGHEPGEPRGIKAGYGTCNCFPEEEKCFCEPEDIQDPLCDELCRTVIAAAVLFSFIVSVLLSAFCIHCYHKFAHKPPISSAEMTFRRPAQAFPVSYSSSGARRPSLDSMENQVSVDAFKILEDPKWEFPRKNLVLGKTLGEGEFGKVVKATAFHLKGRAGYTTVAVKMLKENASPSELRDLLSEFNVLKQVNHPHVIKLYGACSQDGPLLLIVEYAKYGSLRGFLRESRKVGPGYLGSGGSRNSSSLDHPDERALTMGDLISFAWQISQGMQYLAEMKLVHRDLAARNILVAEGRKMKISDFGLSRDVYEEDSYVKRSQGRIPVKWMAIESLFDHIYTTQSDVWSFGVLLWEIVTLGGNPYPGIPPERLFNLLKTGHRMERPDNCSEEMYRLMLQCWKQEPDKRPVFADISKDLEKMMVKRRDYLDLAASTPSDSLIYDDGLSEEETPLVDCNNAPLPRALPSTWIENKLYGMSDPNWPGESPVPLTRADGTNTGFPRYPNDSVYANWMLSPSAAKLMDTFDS

As for `O=C(Cc1ccccc1)NC1(O)C(=O)c2ccccc2C1=O`, the AC50 is 5.55 µM (active) in [1] and 7.11 µM (active) in [2].

As to `O=c1[nH]c2cc(Br)cnc2[nH]1`, the Ki in assay [3] and in [4] was 31.6 µM (active) in each case.

For the compound `O=C(Nc1cccc(C(F)(F)F)n1)Nc1ccnc2cc(OC(F)F)ccc12`, the Ki in [3] is > 3.16 µM (inactive); in [4] it was > 3.98 µM (inactive); in assay [5], > 2 µM (inactive).

Take `O=C(Nc1cccc(C(F)(F)F)n1)Nc1ccnc2cc(Cl)ccc12`: the Ki in assay [5] is > 2 µM (inactive).

On to `Cc1cc(C)c(S(=O)(=O)/N=C2\C=C(Nc3ccc(C(=O)O)cc3)C(=O)c3ccccc32)c(C)c1`, for which the IC50 in assay [6] was 20.8 µM (active). The EC50 in assay [7] is 0.561 µM (active). In addition, the values for the AC50 in assay [8] and in assay [9] were 2.51 µM (active) and 9.55 µM (active), respectively. Moreover, the CC50 in assay [10] is 9.71 µM (active).

Consider `COC(=O)c1nc(-c2ccc3c(n2)C(=O)C(=N)C(OC)=C3O)c(N)c(-c2ccc(OC)c(OC)c2O)c1C`, for which the IC50 in [6] was > 100 µM (active). Also, the EC50 was 5.91 µM (active) in assay [11], 13.9 µM (active) in [12] and 4.56 µM (active) in assay [13]. In addition, the results for the AC50 in assay [2] and in [8] were > 20 µM (inactive) and 1.56 µM (active), respectively. The CC50 in [10] is 0.18 µM (active).

As a reminder, the AC50 is the concentration at which the activity in the assay is half-maximal. A word on the Ki: it is the equilibrium dissociation constant of an inhibitor or competing ligand from its target. For orientation: IC50 means the concentration that gives 50% inhibition. By EC50 is commonly meant the midpoint of the concentration-response curve. One may read the CC50 as the concentration that lowers cell viability or growth by half.
